In patent US20240415819A1, “MACROCYCLIC COMPOUNDS AS PROTEASOME SUBUNIT BETA TYPE-5 INHIBITORS” (Lead Discovery Center GmbH, priority 2021, published 2024):

Columns and labels:
[1] = target: T1, β5 subunit of the human immunoproteasome (IPS) (Homo sapiens, UniProt P28062); test: β5 inhibition assay, human immunoproteasome (Suc-LLVY-AMC); assay type: biochemical; conditions: IC50 class, Suc-LLVY-AMC substrate
T1 construct: purchased Boston Biochem E-370
Method in brief: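 Human immunoproteasome (1 nM final) was preincubated 10 min at RT with compound in 100 mM HEPES pH 7.5, 50 mM NaCl, 0.02% SDS, 1 mM DTT. Suc-LLVY-AMC (22.6 μM final) was then added for 4 h at RT in the dark. After stopping with 1 μM bortezomib, AMC fluorescence was read (ex 355/em 460 nm).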

[2] = tested on: RPMI 8226 (B lymphocyte cell line, multiple myeloma); test: 48 hr CTG viability assay, RPMI 8226; assay type: cell-based; conditions: Homo sapiens, RPMI-8226; 48 hr CTG; read-out: RPMI-8226 IC50
Method in brief: (§1)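 Growth inhibition by compound over 48 h; IC50 (nM) derived from duplicate CellTiter-Glo luminescence readings across 0.0015–10 uM.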

[3] = target: T2, β5 subunit of the human constitutive proteasome (CPS) (Homo sapiens, UniProt P28074); test: β5 inhibition assay, human constitutive proteasome (Suc-LLVY-AMC); assay type: biochemical; conditions: IC50 class, Suc-LLVY-AMC substrate
T2 construct: purchased Boston Biochem E-360
Procedure: The enzymatic activity of the β5 subunit of the human constitutive proteasome (CPS) is analyzed. In another assay, which differs from the assay of the human constitutive proteasome only in using the human immunoproteasome (IPS) the enzymatic activity of the β5 subunit of the human immunoproteasome (IPS) is analyzed. […] Inhibition is indicated as IC50 [nM] (“-”=not measured).

[4] = tested on: MM1 S (B lymphoblast cell line); test: 48 hr CTG viability assay, MM1S; assay type: cell-based; conditions: Homo sapiens, 48 hr CTG, read-out: MM1S IC50
Method in brief: as §1

[5] = tested on: A549 (human lung carcinoma cell line); test: Glo assay of A549 cells (Table 3; ProteasomeGlo plating scheme); assay type: cell-based; conditions: Homo sapiens; A549 cells; read-out: PGLo A549
Method in brief: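 Cells plated in 384 wells; compound, DMSO, staurosporine transferred by ECHO; 105 min, 37° C., 5% CO2; Proteasome-Glo (Suc-LLVY-Glo) reagent added; dark 10-15 min; luminescence; IC50 nM.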

[6] = tested on: Hs 746T (human gastric carcinoma cell line); test: 48 hr CTG viability assay, Hs 746T; assay type: cell-based; conditions: Hs746T, 48 hr CTG, read-out: Hs 746T IC50
Method in brief: as §1

Row | Compound | IC50 [1] [nM] | IC50 [2] [nM] | IC50 [3] [nM] | IC50 [4] [nM] | IC50 [5] [nM] | IC50 [6] [nM]
1 | Cc1ccc2cc1CNC(=O)[C@H](CCc1ccccc1)NC(=O)[C@@H](NC(=O)C(C)(C)CO)CC(=O)NCCCO2 [Compound 736, 3-hydroxy-2,2-dimethyl-N-((9S,12S)-1^4_ methyl-7,10,13-trioxo-12-phenethyl-2-oxa-6,11,14-triaza-1(1,3)-benzenacyclopentadecaphane-9-yl)propanamide] | 1000 to 5000 | 1000 to 5000 | 1000 to 5000 | 1000 to 5000 | > 5000 | > 5000
2 | Cc1ccc2cc1CNC(=O)[C@H](CCc1ccccc1)NC(=O)[C@@H](NC(=O)C1CC3(CNC3)C1)CC(=O)N1CCCC(CCO2)C1 (stereo partly drawn) [Compound 721, N-((9S,12S)-5^4-methyl-8,11,14-trioxo-9-phenethyl-4-oxa-7,10-diaza-1(3,1)-piperidina-5(1,3)-benzenacyclotetradecaphane-12-yl)-2-azaspiro[3.3]heptane-6-carboxamide] | < 100 | 100 to 500 | < 100 | < 100 | 100 to 500 | < 100
3 | Cc1ccc2cc1CNC(=O)[C@H](CCc1ccccc1)NC(=O)[C@@H](NC(=O)CCN1CCC3(CCOC3)CC1)CC(=O)N1CCCC(CCO2)C1 (stereo partly drawn) [Compound 621, N-((9S,12S)-5^4-methyl-8,11,14-trioxo-9-phenethyl-4-oxa-7,10-diaza-1(3,1)-piperidina-5(1,3)-benzenacyclotetradecaphane-12-yl)-3-(2-oxa-8-azaspiro[4.5]decan-8-yl)propanamide] | < 100 | < 100 | < 100 | < 100 | < 100 | < 100
4 | Cc1ccc2cc1CNC(=O)[C@H](CCc1ccccc1)NC(=O)[C@@H](NC(=O)C1CC3CCC(C1)N3)CC(=O)N1CCCC(CCO2)C1 (stereo partly drawn) [Compound 723, N-((9S,12S)-5^4-methyl-8,11,14-trioxo-9-phenethyl-4-oxa-7,10-diaza-1(3,1)-piperidina-5(1,3)-benzenacyclotetradecaphane-12-yl)-8-azabicyclo[3.2]octane-3-carboxamide] | < 100 | 100 to 500 | < 100 | 100 to 500 | < 100 | 100 to 500
5 | Cc1ccc2cc1CNC(=O)[C@H](CCc1ccccc1)NC(=O)[C@@H](NC(=O)N1CCc3cc(O)ccc31)CC(=O)N1CCCC(CCO2)C1 (stereo partly drawn) [Compound 705, 5-hydroxy-N-((9S,12S)-5^4-methyl-8,11,14-trioxo-9-phenethyl-4-oxa-7,10-diaza-1(3,1)-piperidina-5(1,3)-benzenacyclotetradecaphane-12-yl)indoline-1-carboxamide] | < 100 | < 100 | < 100 | < 100 | < 100 | < 100
6 | Cc1ccc2cc1CNC(=O)[C@H](CCc1ccccc1)NC(=O)[C@@H](NC(=O)C(C)(C)c1ccc3ncccc3c1)CC(=O)N1CCCC(CCO2)C1 (stereo partly drawn) [Compound 609, 2-methyl-N-((9S,12S)-5^4-methyl-8,11,14-trioxo-9-phenethyl-4-oxa-7,10-diaza-1(3,1)-piperidina-5(1,3)-benzenacyclotetradecaphane-12-yl)-2-(quinolin-6-yl)propanamide] | < 100 | < 100 | < 100 | < 100 | < 100 | < 100
7 | Cc1ccc2cc1CNC(=O)[C@H](CCc1ccccc1)NC(=O)[C@@H](NC(=O)CCN1CCC3(CCCC3)C1)CC(=O)N1CCCC(CCO2)C1 (stereo partly drawn) [Compound 652, N-((9S,12S)-5^4-methyl-8,11,14-trioxo-9-phenethyl-4-oxa-7,10-diaza-1(3,1)-piperidina-5(1,3)-benzenacyclotetradecaphane-12-yl)-3-(2-azaspiro[4.4]nonan-2-yl)propanamide] | < 100 | < 100 | < 100 | < 100 | < 100 | < 100
8 | Cc1ccc2cc1CNC(=O)[C@H](CCc1ccccc1)NC(=O)[C@@H](NC(=O)CCN1CCC3(CCC3)C1)CC(=O)N1CCCC(CCO2)C1 (stereo partly drawn) [Compound 639, N-((9S,12S)-5^4-methyl-8,11,14-trioxo-9-phenethyl-4-oxa-7,10-diaza-1(3,1)-piperidina-5(1,3)-benzenacyclotetradecaphane-12-yl)-3-(6-azaspiro[3.4]octan-6-yl)propanamide] | < 100 | < 100 | < 100 | < 100 | < 100 | < 100
9 | Cc1ccc2cc1CNC(=O)[C@H](CCc1ccccc1)NC(=O)[C@@H](NC(=O)CCN1CC3(COC3)C1)CC(=O)N1CCCC(CCO2)C1 (stereo partly drawn) [Compound 660, N-((9S,12S)-5^4-methyl-8,11,14-trioxo-9-phenethyl-4-oxa-7,10-diaza-1(3,1)-piperidina-5(1,3)-benzenacyclotetradecaphane-12-yl)-3-(2-oxa-6-azaspiro[3.3]heptan-6-yl)propanamide] | < 100 | < 100 | < 100 | < 100 | < 100 | < 100
10 | Cc1ccc2cc1CNC(=O)[C@H](CCc1ccccc1)NC(=O)[C@@H](NC(=O)CCO[C@H]1C[C@@H]3CC[C@H]1C3)CC(=O)N1CCCC(CCO2)C1 [Compound 642, 3-(((1S,2S,4R)-bicyclo[2.2.1]heptan-2-yl)oxy)-N-((9S,12S)-5^4-methyl-8,11,14-trioxo-9-phenethyl-4-oxa-7,10-diaza-1(3,1)-piperidina-5(1,3)-benzenacyclotetradecaphane-12-yl)propanamide] | < 100 | < 100 | < 100 | < 100 | < 100 | < 100
11 | Cc1ccc2cc1CNC(=O)[C@H](CCc1ccccc1)NC(=O)[C@@H](NS(=O)(=O)Cc1ccccc1F)CC(=O)N1CCCC(CCO2)C1 (stereo partly drawn) [Compound 636, 1-(2-fluorophenyl)-N-((9S,12S)-5^4-methyl-8,11,14-trioxo-9-phenethyl-4-oxa-7,10-diaza-1(3,1)-piperidina-5(1,3)-benzenacyclotetradecaphane-12-yl)methanesulfonamide] | < 100 | < 100 | < 100 | < 100 | < 100 | < 100
12 | CC(=O)c1ccc(CC(=O)N[C@H]2CCC(=O)NCCCCOc3ccc(C)c(c3)CNC(=O)[C@H](CCc3ccccc3)NC2=O)cc1 [Compound 707, 2-(4-acetylphenyl)-N-((11S,14S)-1^4-methyl-8,12,15-trioxo-1^4-phenethyl-2-oxa-7,13,16-triaza-1(1,3)-benzenacycloheptadecaphane-11-yl)acetamide] | < 100 | < 100 | < 100 | < 100 | < 100 | < 100
13 | Cc1ccc2cc1CNC(=O)[C@H](CCc1ccccc1)NC(=O)[C@@H](NC(=O)C1CC3CCC(C1)N3C(=O)OC(C)(C)C)CC(=O)N1CCCC(CCO2)C1 (stereo partly drawn) [Compound 605, tert-butyl 3-(((9S,12S)-5^4-methyl-8,11,14-trioxo-9-phenethyl-4-oxa-7,10-diaza-1(3,1)-piperidina-5(1,3)-benzenacyclotetradecaphane-12-yl)carbamoyl)-8-azabicyclo[3.2.1]octane-8-carboxylate] | < 100 | < 100 | < 100 | < 100 | < 100 | 100 to 500
14 | Cc1ccc2cc1CNC(=O)[C@H](CCc1ccccc1)NC(=O)[C@@H](NC(=O)CCNCc1ccccc1)CC(=O)N1CCCC(CCO2)C1 (stereo partly drawn) [Compound 647, 3-(benzylamino)-N-((9S,12S)-5^4-methyl-8,11,14-trioxo-9-phenethyl-4-oxa-7,10-diaza-1(3,1)-piperidina-5(1,3)-benzenacyclotetradecaphane-12-yl)propanamide] | < 100 | < 100 | < 100 | < 100 | < 100 | < 100
15 | Cc1ccc2cc1CNC(=O)[C@H](CCc1ccccc1)NC(=O)[C@@H](NC(=O)CCOC1CC3(COC3)C1)CC(=O)N1CCCC(CCO2)C1 (stereo partly drawn) [Compound 590, 3-((2-oxaspiro[3.3]heptan-6-yl)oxy)-N-((9S,12S)-5^4-methyl-8,11,14-trioxo-9-phenethyl-4-oxa-7,10-diaza-1(3,1)-piperidina-5(1,3)-benzenacyclotetradecaphane-12-yl)propanamide] | < 100 | < 100 | < 100 | < 100 | < 100 | < 100
